Legend:
[1] = biological target: T1, Rh-PDE-TMD (SrRh-PDE transmembrane domain) (Salpingoeca rosetta, UniProt F2TZN0); test: X-ray crystallography, […] Å; type: binding; conditions: covalent; Schiff base at Lys296 in TM7; LCP crystals, pH 5.0
T1 construct: gene PTSG_02023; rhodopsin / transmembrane domain (TM0-7), residues 33-316; C-terminal GFP-His8 cut by TEV; HEK293S GnTI-; dimer

Rh-PDE wt (full-length) = biological target: T2, Rh-PDE wt (full-length) (Salpingoeca rosetta, UniProt F2TZN0); test: HPLC hydrolysis assay, HEK293T homogenate; type: biochemical; conditions: 100 μM cGMP, dark or light (Y52 filter), 3 mM MgCl2, pH 6.5, room temperature
T2 construct: gene PTSG_02023; full-length, RHO 1D4 tag, ~75 kDa; human codon-optimised gene expressed in HEK293T; dimer

[2] = biological target: the molecule itself; test: high-speed atomic force microscopy (HS-AFM); purified full-length Rh-PDE reconstituted in an asolectin lipid bilayer, on APTES-treated mica, buffer without detergent, room temperature, tapping mode
[3] = biological target: the molecule itself; test: SEC-MALS; SEC-MALLS, Superdex 200 Increase 10/300, 4 °C, 20 mM Tris-HCl pH 8.0, 150 mM NaCl, 0.01% LMNG; three-detector method

## CC1=C(/C=C/C(C)=C/C=C/C(C)=C/C=O)C(C)(C)CCC1 [all-trans retinal]
[1]
  X-ray crystallography, 2.6 Å: canonical rhodopsin-like topology with covalently linked retinal at Lys296 in TM7

## Nc1nc2c(ncn2[C@@H]2O[C@@H]3COP(=O)(O)O[C@H]3[C@H]2O)c(=O)[nH]1 [cGMP]
Rh-PDE wt (full-length)
  HPLC hydrolysis assay, HEK293T homogenate: The wild-type Rh-PDE showed three and twofold light-induced productions of cAMP and cGMP, respectively

B1: Full-length rhodopsin phosphodiesterase from Salpingoeca rosetta (enzyme, UniProt F2TZN0 1-704, looked up)
chain: MGRKNAANSSMLQEASMNNYSMTSAASGASSSGRGKRRAKTRNIAIASTKEVQWQGIFMIIVWLCVMGSLIFFANPEASRRVFAKFSHLQSFYGATSVAFAFATGLDILAYVNAVSDEKRVLSGILAYVDGVACISYLSMATLNLYFLVDSTQGNPVWLMRYAEWIITCPTLLYWCGLASRADRSSVSDIATADALLLAGGALSSILPSWPAFFVFAGSFATYIYVMLHMWGMFGKAMQPDFQPPPPLPRHALHLLRCEIVMSWSIFPLVEFLRRQGYIDFQVGEAMNCVADYAAKVGLAMIMVNCNLEQINALRVQQMHSALTGMLKVMRKTNLSSSRMAQLDGVDDDVKSWIMNEFSGSTDGKGGDDAKAQQRARGRKGHSAAMDAEKLAASSLFTWDFDALDKSDEDLTAVCVRVFQELHVIEQFNIDEKKLRKWLQKVRTQYNKNPFHNWRHAVMVLHTTYLLLTSVATEFITEVELLAMLIAALSHDLDHNGLTNAFHINSRSELALVYNDQSVLENHHSHLAFEILLEKGCNVVENLDEDEFKRLRAVIINCILNTDMATHHTKLSKMEEVNRLGGFINLAENNDQRLFVLAVLLHTADLHNPIKPFESNKRWSARLQKEFNNQVELEAKMNLPSLPFMRGNDEESLAKGEIGFINFVVKPWHQQLSQAFPKLDFLLDTIDANLAEWKAIAESYRQMH
notes: Rhodopsin phosphodiesterase (Rh-PDE) of Salpingoeca rosetta, full length; also called full-length Rh-PDE; Rh-PDE (full); source: purified as the TMD constructs (HEK293S GnTI- cells) but in DDM/CHS; reconstituted in an asolectin lipid bilayer; not shown: GFP-His8, C-terminal, cleaved
[2]
  stoichiometry N: 2

B2: Rhodopsin phosphodiesterase transmembrane domain (Rh-PDE–TMD, residues 33–316) (domain or fragment, Salpingoeca rosetta, UniProt F2TZN0 33-316, looked up)
chain: GRGKRRAKTRNIAIASTKEVQWQGIFMIIVWLCVMGSLIFFANPEASRRVFAKFSHLQSFYGATSVAFAFATGLDILAYVNAVSDEKRVLSGILAYVDGVACISYLSMATLNLYFLVDSTQGNPVWLMRYAEWIITCPTLLYWCGLASRADRSSVSDIATADALLLAGGALSSILPSWPAFFVFAGSFATYIYVMLHMWGMFGKAMQPDFQPPPPLPRHALHLLRCEIVMSWSIFPLVEFLRRQGYIDFQVGEAMNCVADYAAKVGLAMIMVNCNLEQINALRV
modifications: covalently linked retinal at Lys296
notes: Rhodopsin phosphodiesterase (Rh-PDE) of Salpingoeca rosetta, transmembrane domain, residues 33-316; gene synthesised with human codon optimisation; TEV site between the protein and the GFP-His8 tag; also called SrRh-PDE–TMD; source: HEK293S GnTI- cells (pEG BacMam), purified (TALON, TEV cleavage, SEC) in LMNG/CHS; not shown: GFP-His8, C-terminal, cleaved
[3]
  stoichiometry N: 2
